# Numbered stars: 1 amine (or outer) side, 2 acyl side, 3 side chain; on linkers, the order of the positions; unused ones are H or OH. Bridge positions count the residues as written; N and C are the ends. Square brackets hold non-standard residues; d marks the D form. Peptide text beside a SMILES is read from it. * marks the point of attachment. Orn(4R-OH,5R-OCH2CH2NMe3+) = C[N+](C)(C)CCO[C@@H](N[*:3])[C@H](O)C[C@H](N[*:1])C(=O)[*:2]; pTerphenylCO(4''-OnC5H11) = CCCCCOc1ccc(-c2ccc(-c3ccc(C(=O)*)cc3)cc2)cc1; hTyr(3S-OH,4S-OH) = N[C@H](C(=O)O)[C@H](O)[C@@H](O)c1ccc(O)cc1; Pro(3S-OH,4S-Me) = C[C@H]1CN[C@H](C(=O)O)[C@H]1O; Hyp = O=C(O)[C@@H]1C[C@@H](O)CN1
# Legend:
# [1] = target: human OATP1B3 (Homo sapiens, UniProt Q9NPD5); assay: NC-052 OATP1B3 substrate study in transiently transfected HEK293 cells; format: in vitro ADME
# human OATP1B3, sequence (Q9NPD5 whole entry): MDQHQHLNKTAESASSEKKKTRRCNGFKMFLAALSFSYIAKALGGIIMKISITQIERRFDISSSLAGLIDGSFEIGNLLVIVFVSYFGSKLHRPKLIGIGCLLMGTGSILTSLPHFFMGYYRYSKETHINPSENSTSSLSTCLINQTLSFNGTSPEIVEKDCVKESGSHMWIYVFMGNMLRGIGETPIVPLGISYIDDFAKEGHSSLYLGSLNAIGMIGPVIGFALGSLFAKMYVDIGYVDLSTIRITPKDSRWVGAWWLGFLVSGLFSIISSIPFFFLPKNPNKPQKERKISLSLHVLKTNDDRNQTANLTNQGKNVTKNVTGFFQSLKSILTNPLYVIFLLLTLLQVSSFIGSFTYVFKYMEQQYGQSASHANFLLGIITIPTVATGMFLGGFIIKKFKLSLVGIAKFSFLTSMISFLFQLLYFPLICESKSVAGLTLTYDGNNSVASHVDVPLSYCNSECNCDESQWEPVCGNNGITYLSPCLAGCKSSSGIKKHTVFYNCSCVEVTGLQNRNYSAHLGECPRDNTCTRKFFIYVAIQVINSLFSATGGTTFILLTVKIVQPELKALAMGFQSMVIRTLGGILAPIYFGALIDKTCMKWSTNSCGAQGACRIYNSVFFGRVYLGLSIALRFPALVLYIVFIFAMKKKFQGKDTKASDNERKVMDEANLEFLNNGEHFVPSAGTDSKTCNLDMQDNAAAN
# Source text: (§1) Microbiology Spectrum Supplementary materials
# (§2) Table S 4Summary of initial in vitro assessments […]
# (§3) whether rezafungin can induce CYP isoforms 1A2, 2B6, or 3A4. mRNA expression) of CYP1A2 and CYP2B6, and, in the case of […]
# (§4) Abbreviations: ABC = ATP binding cassette; BCRP = breast cancer resistance protein; BSEP = bile salt export pump; CYP = cytochrome P450; MATE = multidrug and toxic compound extrusion; MDCK = Madin-Darby canine kidney; MDR = multidrug resistance protein; mRNA = messenger ribonucleic acid; OAT = organic anion transporter; OATP = organic anion transporter protein; OCT – organic cation transporter; OCTN = organic cation transporter novel; P-gp = P-glycoprotein; SLC = solute carrier.
# [2] = target: human OCT2 (Homo sapiens, UniProt O15244); assay: NC-152 transporter inhibition, OCT2; format: in vitro ADME; conditions: in vitro cell test system
# Source text: as §1, §2, §3, §4
# [3] = target: CYP2B6 (Homo sapiens, UniProt P20813); assay: NC-012 CYP450 inhibition screening, recombinant CYP2B6; format: in vitro ADME; conditions: 10 μM, fluorogenic substrate, recombinant human CYP
# Source text: as §1, §2, §3, §4
# [4] = target: T1, human OATP1B1 (Homo sapiens, UniProt Q9Y6L6); assay: NC-152 transporter inhibition, OATP1B1; format: in vitro ADME; conditions: in vitro cell test system
# T1 sequence (Q9Y6L6 whole entry): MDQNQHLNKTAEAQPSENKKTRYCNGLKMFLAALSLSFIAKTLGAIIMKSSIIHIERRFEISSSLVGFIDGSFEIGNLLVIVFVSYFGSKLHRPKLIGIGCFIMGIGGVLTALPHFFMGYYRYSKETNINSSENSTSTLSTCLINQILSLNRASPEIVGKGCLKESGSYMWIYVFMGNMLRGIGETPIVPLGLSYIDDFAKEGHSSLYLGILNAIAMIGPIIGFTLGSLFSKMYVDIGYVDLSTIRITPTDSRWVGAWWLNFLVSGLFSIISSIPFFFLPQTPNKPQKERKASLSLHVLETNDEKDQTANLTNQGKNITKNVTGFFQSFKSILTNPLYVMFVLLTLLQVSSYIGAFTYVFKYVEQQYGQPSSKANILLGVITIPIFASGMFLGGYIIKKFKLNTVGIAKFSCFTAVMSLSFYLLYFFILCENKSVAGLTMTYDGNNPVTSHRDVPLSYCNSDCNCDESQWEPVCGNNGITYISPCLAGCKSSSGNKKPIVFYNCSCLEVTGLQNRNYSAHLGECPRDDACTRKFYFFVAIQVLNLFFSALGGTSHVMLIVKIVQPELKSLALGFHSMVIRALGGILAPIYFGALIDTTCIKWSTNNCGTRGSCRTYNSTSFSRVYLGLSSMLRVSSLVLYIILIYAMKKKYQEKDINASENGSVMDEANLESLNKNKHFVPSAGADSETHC
# Source text: as §1, §2, §3, §4
# [5] = target: CYP2C9 (Homo sapiens, UniProt P11712); assay: NC-153 time-dependent inhibition in human liver microsomes, CYP2C9; format: in vitro ADME; conditions: 0.1 to 25 μM
# CYP2C9, sequence (P11712 whole entry): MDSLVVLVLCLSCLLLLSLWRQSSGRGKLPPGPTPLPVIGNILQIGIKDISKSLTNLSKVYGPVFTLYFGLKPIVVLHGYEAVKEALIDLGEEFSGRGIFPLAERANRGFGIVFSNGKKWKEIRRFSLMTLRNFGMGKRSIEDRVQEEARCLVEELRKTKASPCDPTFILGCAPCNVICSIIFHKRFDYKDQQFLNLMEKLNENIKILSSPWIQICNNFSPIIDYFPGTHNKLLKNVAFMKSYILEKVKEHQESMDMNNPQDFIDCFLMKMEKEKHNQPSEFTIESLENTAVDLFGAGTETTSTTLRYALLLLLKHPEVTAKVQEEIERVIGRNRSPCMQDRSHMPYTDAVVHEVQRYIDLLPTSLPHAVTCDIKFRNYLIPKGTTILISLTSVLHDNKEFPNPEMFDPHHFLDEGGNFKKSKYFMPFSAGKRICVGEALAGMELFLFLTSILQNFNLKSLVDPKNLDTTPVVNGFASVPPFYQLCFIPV
# Source text: as §1, §2, §3, §4
# [6] = target: CYP2D6 (Homo sapiens, UniProt P10635); assay: NC-012 CYP450 inhibition screening, recombinant CYP2D6; format: in vitro ADME; conditions: 10 μM, fluorogenic substrate, recombinant human CYP
# CYP2D6, sequence (P10635 whole entry): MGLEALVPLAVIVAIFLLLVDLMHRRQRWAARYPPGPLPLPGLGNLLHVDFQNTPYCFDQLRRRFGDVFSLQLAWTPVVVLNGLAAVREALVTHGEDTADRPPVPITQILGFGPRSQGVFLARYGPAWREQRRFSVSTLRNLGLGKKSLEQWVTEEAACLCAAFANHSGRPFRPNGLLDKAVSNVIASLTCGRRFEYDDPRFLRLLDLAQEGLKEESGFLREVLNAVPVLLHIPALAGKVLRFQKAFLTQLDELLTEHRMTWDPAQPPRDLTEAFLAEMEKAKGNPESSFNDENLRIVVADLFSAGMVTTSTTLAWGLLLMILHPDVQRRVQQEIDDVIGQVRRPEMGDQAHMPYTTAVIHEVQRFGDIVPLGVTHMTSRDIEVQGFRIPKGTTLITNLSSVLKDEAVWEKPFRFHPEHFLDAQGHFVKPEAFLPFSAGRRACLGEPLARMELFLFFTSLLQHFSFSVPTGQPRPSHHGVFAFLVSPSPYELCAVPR
# Source text: as §1, §2, §3, §4
# [7] = Study 2 safety and tolerability (TEAEs)
# Experimental: After screening, subjects were admitted to the CRU on day −17 (prior to the first rezafungin dose) and were discharged on day 22. Rezafungin was dosed via i.v. infusion over 1 h at 400 mg on day 1 and 200 mg on day 8 and day 15. The oral drugs to be tested for interactions were each administered twice on a schedule designed to allow washout between doses: once alone and once while receiving rezafungin (Fig. 4B). The total duration of treatment was approximately 84 days, which included 45 days of screening and 39 days of treatment in the CRU.
# In both studies, the safety population included all subjects who received any amount of the study drug. In study 1, the rezafungin safety population included all subjects who received any amount of rezafungin. Safety assessments included vital signs (temperature, heart rate, blood pressure, and respiratory rate), safety laboratory evaluations (hematology assessment, serum chemistry panel, and urinalysis), physical examinations (complete and symptom directed), and EKGs.
# as §1
# Abbreviations: TEAE = treatment-emergent adverse event.
# N = number of subjects in the safety population; n = number of subjects in a sample.
# Notes: Each TEAE was counted only once for each subject within each System Organ Class and Preferred Term.
# [8] = cited from earlier work
# Source text: Rezafungin is a novel echinocandin currently in development for the treatment of candidemia and invasive candidiasis as well as for prophylaxis against fungal diseases caused by Candida, Aspergillus, and Pneumocystis species in people undergoing allogeneic blood and marrow transplantation ([33][–][35]). […] It has als ...
# [9] = target: T2, CYP2C8 (Homo sapiens, UniProt P10632); assay: NC-153 time-dependent inhibition in human liver microsomes, CYP2C8; format: in vitro ADME; set-up: in human liver microsomal preparations; from tissue; host or cells: human liver microsomes; conditions: 0.1 to 25 μM
# T2 sequence (P10632 1-490): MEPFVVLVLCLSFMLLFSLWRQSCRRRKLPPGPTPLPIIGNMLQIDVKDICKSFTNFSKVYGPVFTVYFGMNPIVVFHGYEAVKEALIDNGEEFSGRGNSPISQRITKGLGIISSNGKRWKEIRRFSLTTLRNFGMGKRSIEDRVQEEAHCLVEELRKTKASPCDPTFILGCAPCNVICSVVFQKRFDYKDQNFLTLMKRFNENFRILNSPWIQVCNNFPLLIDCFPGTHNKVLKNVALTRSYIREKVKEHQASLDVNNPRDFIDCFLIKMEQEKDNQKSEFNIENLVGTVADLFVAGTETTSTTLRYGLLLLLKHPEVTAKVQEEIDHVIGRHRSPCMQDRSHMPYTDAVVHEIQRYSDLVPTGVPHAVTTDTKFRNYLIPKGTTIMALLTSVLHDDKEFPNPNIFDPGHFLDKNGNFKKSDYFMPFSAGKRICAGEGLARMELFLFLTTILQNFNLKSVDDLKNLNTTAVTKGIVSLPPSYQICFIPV
# Source text: as §1, §2, §3, §4
# [10] = target: human MATE1 (Homo sapiens, UniProt Q96FL8); assay: NC-152 transporter inhibition, MATE1; format: in vitro ADME
# human MATE1, sequence (Q96FL8 whole entry): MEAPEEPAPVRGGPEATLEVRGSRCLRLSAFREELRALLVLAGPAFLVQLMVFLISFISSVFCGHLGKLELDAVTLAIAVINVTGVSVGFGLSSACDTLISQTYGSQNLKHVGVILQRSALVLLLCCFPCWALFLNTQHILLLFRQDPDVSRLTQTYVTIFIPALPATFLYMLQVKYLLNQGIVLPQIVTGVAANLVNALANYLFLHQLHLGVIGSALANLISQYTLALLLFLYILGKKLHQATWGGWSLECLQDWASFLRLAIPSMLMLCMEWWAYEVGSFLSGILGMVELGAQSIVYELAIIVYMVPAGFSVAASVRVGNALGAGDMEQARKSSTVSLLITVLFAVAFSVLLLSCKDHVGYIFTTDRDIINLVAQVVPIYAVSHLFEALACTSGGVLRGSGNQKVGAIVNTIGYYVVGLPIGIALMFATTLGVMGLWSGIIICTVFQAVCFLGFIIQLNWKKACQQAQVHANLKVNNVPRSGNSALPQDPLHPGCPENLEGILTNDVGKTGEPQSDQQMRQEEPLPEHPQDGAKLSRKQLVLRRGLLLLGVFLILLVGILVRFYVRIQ
# Source text: (§5) Abbreviations: ABC = ATP binding cassette; BCRP = breast cancer resistance protein; BSEP = bile salt export pump; CYP = cytochrome P450; MATE =
# (§6) multidrug and toxic compound extrusion; MDCK = Madin-Darby canine kidney; MDR = multidrug resistance protein; mRNA = messenger ribonucleic acid;
# (§7) OAT = organic anion transporter; OATP = organic anion transporter protein; OCT – organic cation transporter; OCTN = organic cation transporter novel; P-gp =
# (§8) P-glycoprotein; SLC = solute carrier.
# [11] = target: T3, CYP2C19 (Homo sapiens, UniProt P33261); assay: NC-012 CYP450 inhibition screening, recombinant CYP2C19; format: in vitro ADME; conditions: 10 μM, fluorogenic substrate, recombinant human CYP
# T3 sequence (P33261 whole entry): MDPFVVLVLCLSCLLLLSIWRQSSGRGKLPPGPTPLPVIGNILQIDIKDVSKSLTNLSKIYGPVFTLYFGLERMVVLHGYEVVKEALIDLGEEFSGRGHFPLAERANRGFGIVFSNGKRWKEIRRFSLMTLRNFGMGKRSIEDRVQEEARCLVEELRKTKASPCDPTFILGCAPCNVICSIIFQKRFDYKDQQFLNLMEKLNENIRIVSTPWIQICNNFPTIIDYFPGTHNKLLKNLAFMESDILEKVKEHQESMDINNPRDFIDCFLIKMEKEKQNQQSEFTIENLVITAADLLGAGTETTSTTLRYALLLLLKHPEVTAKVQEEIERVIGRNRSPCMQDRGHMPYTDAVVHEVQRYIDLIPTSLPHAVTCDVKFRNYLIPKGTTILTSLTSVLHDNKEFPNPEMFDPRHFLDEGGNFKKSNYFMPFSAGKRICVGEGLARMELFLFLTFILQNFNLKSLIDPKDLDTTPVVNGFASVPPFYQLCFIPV
# Source text: as §1, §2, §3, §4
# [12] = target: BSEP (Homo sapiens, UniProt O95342); assay: NC-152 BSEP inhibition in membrane vesicles; format: in vitro ADME
# BSEP, sequence (O95342 whole entry): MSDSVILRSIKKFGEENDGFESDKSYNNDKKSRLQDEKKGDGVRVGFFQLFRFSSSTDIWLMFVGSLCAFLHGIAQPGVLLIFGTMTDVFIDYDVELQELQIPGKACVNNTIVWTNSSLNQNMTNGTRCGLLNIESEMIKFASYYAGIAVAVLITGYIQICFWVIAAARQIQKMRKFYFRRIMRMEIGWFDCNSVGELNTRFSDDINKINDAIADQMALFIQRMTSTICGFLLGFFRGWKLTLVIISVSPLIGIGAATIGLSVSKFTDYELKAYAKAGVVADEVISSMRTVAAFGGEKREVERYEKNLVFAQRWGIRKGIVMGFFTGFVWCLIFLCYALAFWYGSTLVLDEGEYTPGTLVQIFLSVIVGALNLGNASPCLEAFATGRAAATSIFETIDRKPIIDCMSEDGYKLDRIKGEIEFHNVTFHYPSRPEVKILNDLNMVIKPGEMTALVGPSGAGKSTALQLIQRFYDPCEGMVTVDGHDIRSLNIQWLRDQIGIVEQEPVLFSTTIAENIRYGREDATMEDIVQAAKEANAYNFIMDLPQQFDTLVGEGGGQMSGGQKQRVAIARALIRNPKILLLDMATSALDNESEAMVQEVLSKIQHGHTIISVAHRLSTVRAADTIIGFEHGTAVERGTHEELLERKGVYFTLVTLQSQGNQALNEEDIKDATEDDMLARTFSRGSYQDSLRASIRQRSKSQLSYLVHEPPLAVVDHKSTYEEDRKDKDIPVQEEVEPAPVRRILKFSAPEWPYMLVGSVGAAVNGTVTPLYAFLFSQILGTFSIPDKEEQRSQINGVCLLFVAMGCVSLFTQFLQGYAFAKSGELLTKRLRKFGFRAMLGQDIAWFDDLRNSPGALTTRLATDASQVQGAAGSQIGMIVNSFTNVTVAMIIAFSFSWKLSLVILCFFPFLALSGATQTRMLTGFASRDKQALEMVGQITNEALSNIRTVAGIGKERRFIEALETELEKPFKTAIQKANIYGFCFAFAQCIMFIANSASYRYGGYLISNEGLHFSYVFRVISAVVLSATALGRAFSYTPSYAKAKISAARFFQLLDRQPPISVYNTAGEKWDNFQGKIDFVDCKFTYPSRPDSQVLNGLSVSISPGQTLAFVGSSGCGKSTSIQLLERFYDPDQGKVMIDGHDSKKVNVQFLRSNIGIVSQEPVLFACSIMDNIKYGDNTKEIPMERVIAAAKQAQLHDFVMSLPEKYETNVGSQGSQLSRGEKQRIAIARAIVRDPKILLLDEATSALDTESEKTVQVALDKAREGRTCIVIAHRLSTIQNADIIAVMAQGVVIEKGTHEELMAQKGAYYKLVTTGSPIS
# Source text: as §1, §2, §3, §4
# [13] = target: T1, human OATP1B1; assay: NC-052 OATP1B1 substrate study in transiently transfected HEK293 cells; format: in vitro ADME
# Source text: as §1, §2, §3, §4
# [14] = target: human P-gp (Homo sapiens, UniProt P08183); assay: NC-049 P-gp substrate potential in Caco-2 monolayers; format: in vitro ADME; conditions: with/without inhibitors
# Source text: as §1, §2, §3, §4
# [15] = target: T3, CYP2C19; assay: NC-153 time-dependent inhibition in human liver microsomes, CYP2C19; format: in vitro ADME; conditions: 0.1 to 25 μM
# Source text: as §1, §2, §3, §4
# [16] = target: CYP3A4 (Homo sapiens, UniProt P08684)
# Source text: as §5, §6, §7, §8
# [17] = target: BCRP (Homo sapiens, UniProt Q9UNQ0); assay: NC-049 BCRP substrate potential in Caco-2 monolayers; format: in vitro ADME; conditions: with/without inhibitors
# Source text: as §1, §2, §3, §4
smiles,measurement,setting,value
"CCCCCOc1ccc(-c2ccc(-c3ccc(C(=O)N[C@H]4C[C@@H](O)[C@@H](OCC[N+](C)(C)C)NC(=O)[C@@H]5[C@@H](O)[C@@H](C)CN5C(=O)[C@H]([C@@H](C)O)NC(=O)[C@H]([C@H](O)[C@@H](O)c5ccc(O)cc5)NC(=O)[C@@H]5C[C@@H](O)CN5C(=O)[C@H]([C@@H](C)O)NC4=O)cc3)cc2)cc1 [Rezafungin] ({pTerphenylCO(4''-OnC5H11)}-[Orn(4R-OH,5R-OCH2CH2NMe3+)]T[Hyp][hTyr(3S-OH,4S-OH)]T[Pro(3S-OH,4S-Me)]; lactam 1-C)",substrate of OATP1B3,[1],not to be a substrate
same,"uptake ratio, OATP1B3",[1],< 2
same,inhibitor of probe substrate transport mediated via OCT2,[2],determined to be an inhibitor
same,inhibition of CYP2B6,[3],Minimal inhibition
same,inhibitor of probe substrate transport mediated via OATP1B1,[4],determined to be an inhibitor
same,time-dependent inhibitor of CYP2C9,[5],not a time-dependent inhibitor
same,inhibition of CYP2D6,[6],Minimal inhibition
same,deaths or serious adverse events,[7]; Study 2,no deaths or serious adverse events
same,severe TEAE deemed by the investigator to be related to the drug,"[7]; Study 2, one subject each",abdominal pain
same,tolerability,"[7]; once-weekly i.v. infusions, 400-mg loading dose followed by two 200-mg maintenance doses",generally well tolerated
same,half-life,[8],around 130 h
same,chemical stability,"[8]; incubated in phosphate-buffered saline, no evidence of reactive intermediate formation",chemically stable
same,metabolic stability in hepatocytes,[8]; preclinical data,metabolically stable
same,metabolic stability in liver microsomes,[8]; preclinical data,metabolically stable
same,time-dependent inhibitor of CYP2C8,[9],not a time-dependent inhibitor
same,inhibitor of probe substrate transport mediated via MATE1,"[10]; in vitro cell test system, NC-152",determined to be an inhibitor
same,IC50,"[10]; initial in vitro studies, read-out: IC50, MATE-1 uptake transporter (moderate inhibition)",> 6 µM
same,inhibition of CYP2C19,[11],Minimal inhibition
same,inhibitor of probe substrate transport mediated via BSEP,[12],not
same,substrate of OATP1B1,[13],not to be a substrate
same,"uptake ratio, OATP1B1",[13],< 2
same,substrate of P-gp,[14],not a substrate
same,time-dependent inhibitor of CYP2C19,[15],not a time-dependent inhibitor
same,IC50,[16],> 25 µM
same,substrate of BCRP,[17],not a substrate
